The values below come from article PMC12040169 (PLOS Biology, 2025).

The data set in a line: in vitro. Particulars: human, hela cells, % viability.
For `CC(C)NC(=O)[C@@H](C)C1CC[C@@]2(C)CC[C@H](NC(=O)C3CC3)[C@@H](C)[C@@H]2[C@H]1O` (stereo partly shown) [CBK289444], the viability at 28.5 h, 10 µM was 85%. To `C[C@H]1[C@@H]2[C@@H](O)C([C@H](C)C(=O)N3CCCCC3)CC[C@@]2(C)CC[C@@H]1NC(=O)C1CC1` (stereo partly shown) [CBK289446] belongs 106%.

`C[C@H]1[C@@H]2[C@@H](O)C([C@H](C)C(=O)N3CCCC3)CC[C@@]2(C)CC[C@@H]1NC(=O)C1CC1` (stereo partly shown) [CBK289447]: the viability at 28.5 h, 10 µM was found to be 85%.

`C[C@H]1[C@@H]2[C@@H](O)C([C@H](C)C(=O)N3CCCCC3)CC[C@@]2(C)CC[C@@H]1NC(=O)c1cnccn1` (stereo partly shown) [CBK289448]: the viability at 28.5 h, 10 µM worked out at 111%. The result for `CC(C)NC(=O)[C@@H](C)C1CC[C@@]2(C)CC[C@H](NC(=O)c3ccncc3)[C@@H](C)[C@@H]2[C@H]1O` (stereo partly shown) [CBK289449] reads 89.1%; that for `C[C@H]1[C@@H]2[C@H]3OC(=O)[C@@H](C)[C@@H]3CC[C@@]2(C)CC[C@@H]1NC(=O)c1ccccn1` [CBK289452], 107%; that for `C[C@H]1[C@@H]2[C@@H](O)C([C@H](C)C(=O)NC3CC3)CC[C@@]2(C)CC[C@@H]1NC(=O)c1cncnc1` (stereo partly shown) [CBK289453], 91.5%. The result for `CC(C)NC(=O)[C@@H](C)C1CC[C@@]2(C)CC[C@H](NC(=O)c3cncnc3)[C@@H](C)[C@@H]2[C@H]1O` (stereo partly shown) [CBK289454] reads 103%. On to `CCNC(=O)N[C@H]1CC[C@]2(C)CCC([C@H](C)C(=O)N3CCCC3)[C@H](O)[C@H]2[C@@H]1C` (stereo partly shown) [CBK289456], for which the viability at 28.5 h, 10 µM was found to be 116%. The result for `Cc1noc(C)c1C(=O)N[C@H]1CO[C@H]2[C@@H]1OC[C@H]2OCc1ccccc1` [CBK289458] reads 96.7%; that for `COc1ccc(C(=O)N[C@H]2CO[C@H]3[C@@H]2OC[C@H]3OC(=O)Nc2ccccc2)cc1` [CBK289463], 103%. Regarding `O=C(Nc1ccccc1)O[C@@H]1CO[C@H]2[C@@H]1OC[C@@H]2NC(=O)C1CC1` [CBK289464], the viability at 28.5 h, 10 µM came to 88%. Take `O=C(Nc1cccc2ccccc12)O[C@@H]1CO[C@H]2[C@@H]1OC[C@@H]2NC(=O)c1cccs1` [CBK289468]: the viability at 28.5 h, 10 µM stood at 103%. Turning to `CC(=O)N[C@H]1CO[C@H]2[C@@H]1OC[C@H]2OC(=O)Nc1ccc(Oc2ccccc2)cc1` [CBK289470], the viability at 28.5 h, 10 µM amounted to 113%. The result for `CC(C)c1ccc(NC(=O)O[C@@H]2CO[C@H]3[C@@H]2OC[C@@H]3NC(=O)C2CC2)cc1` [CBK289471] reads 99%; that for `CCNC(=O)O[C@@H]1CO[C@H]2[C@@H]1OC[C@@H]2NC(=O)c1ccc(C)cc1` [CBK289472], 106%. As to `O=C(Nc1cccc(C(F)(F)F)c1)N[C@H]1CO[C@H]2[C@@H]1OC[C@H]2O` [CBK289476], the viability at 28.5 h, 10 µM was found to be 102%. The result for `Cc1ccc(S(=O)(=O)N[C@H]2CO[C@H]3[C@@H]2OC[C@H]3O)cc1` [CBK289477] reads 98.4%; that for `O=S(=O)(N[C@H]1CO[C@H]2[C@@H]1OC[C@H]2O)c1ccc(Cl)cc1` [CBK289478], 87.7%; that for `CC(C)c1ccc(NC(=O)O[C@@H]2CO[C@H]3[C@@H]2OC[C@@H]3NC(=O)c2cncnc2)cc1` [CBK289480], 105%. The result for `CN(C)c1ccc(-c2nnnn2[C@H]2CO[C@H]3[C@@H]2OC[C@H]3O)cc1` [CBK289481] reads 76.7%; that for `O=C(N[C@H]1CO[C@H]2[C@@H]1OC[C@@H]2n1nnnc1-c1ccccc1)c1ccccc1` [CBK289482], 120%; that for `CC(=O)N[C@H]1CO[C@H]2[C@@H]1OC[C@@H]2n1nnnc1-c1ccccc1` [CBK289483], 87.1%. With `CCNC(=O)N[C@H]1CO[C@H]2[C@@H]1OC[C@@H]2n1nnnc1Oc1ccccc1` [CBK289484], the viability at 28.5 h, 10 µM is 102%. With `CC(=O)N[C@H]1CO[C@H]2[C@@H]1OC[C@@H]2n1nnnc1Oc1ccc(-n2ccnc2)cc1` [CBK289487], the viability at 28.5 h, 10 µM was 104%. Consider `COCc1cn([C@H]2CO[C@H]3[C@@H]2OC[C@H]3OC(=O)Nc2ccc(C)cc2)nn1` [CBK289489], for which the viability at 28.5 h, 10 µM turned out to be 90.6%. The result for `COC(=O)c1cn([C@H]2CO[C@H]3[C@@H]2OC[C@H]3OC(=O)Nc2ccccc2)nn1` [CBK289492] reads 91.4%; that for `COCc1cn([C@H]2CO[C@H]3[C@@H]2OC[C@@H]3NC(=O)Nc2ccc(OC)cc2)nn1` [CBK289495], 107%; that for `COC(=O)c1cn([C@H]2CO[C@H]3[C@@H]2OC[C@@H]3NC(=O)C2CC2)nn1` [CBK289497], 86%. Regarding `COC(=O)c1cn([C@H]2CO[C@H]3[C@@H]2OC[C@@H]3NS(=O)(=O)Cc2ccccc2)nn1` [CBK289498], the viability at 28.5 h, 10 µM is 86.9%. On to `COC(=O)c1cn([C@H]2CO[C@H]3[C@@H]2OC[C@@H]3NC(=O)Nc2ccc(OC)cc2)nn1` [CBK289500], for which the viability at 28.5 h, 10 µM came to 94.2%. The result for `O=C(N[C@H]1CO[C@H]2[C@@H]1OC[C@@H]2n1cc(-c2ccccc2)nn1)N1CCOCC1` [CBK289503] reads 87.7%.

Regarding `O=C(NC1CCCCC1)N[C@H]1CO[C@H]2[C@@H]1OC[C@@H]2n1cc(-c2ccccc2)nn1` [CBK289505], the viability at 28.5 h, 10 µM turned out to be 84.6%. The result for `COc1ccc(NC(=O)N[C@H]2CO[C@H]3[C@@H]2OC[C@@H]3n2cc(-c3ccccc3)nn2)cc1` [CBK289506] reads 106%.

With `O=C(N[C@H]1CO[C@H]2[C@@H]1OC[C@@H]2n1cc(-c2ccccn2)nn1)c1ccc(C(F)(F)F)cc1` [CBK289507], the viability at 28.5 h, 10 µM was found to be 89.7%. To `O=C(N[C@H]1CO[C@H]2[C@@H]1OC[C@@H]2n1cc(CC2CCCCC2)nn1)C1CC1` [CBK289509] belongs 92.2%.

As for `COc1cccc(-c2nnnn2[C@H]2CO[C@H]3[C@@H]2OC[C@@H]3NC(=O)c2ccc(C)cc2)c1` [CBK289512], the viability at 28.5 h, 10 µM came to 94.1%. As to `O=C(N[C@H]1CO[C@H]2[C@@H]1OC[C@@H]2Nc1nccc(-c2cccs2)n1)c1ccccc1` [CBK289516], the viability at 28.5 h, 10 µM was found to be 84.5%. To `O=C(N[C@H]1CO[C@H]2[C@@H]1OC[C@@H]2Nc1nccc(-c2cccs2)n1)C1CC1` [CBK289517] belongs 95%; to `O=C(N[C@H]1CO[C@H]2[C@@H]1OC[C@@H]2Nc1nccc(-c2cccs2)n1)c1cccs1` [CBK289518], 106%; to `CC(C)(C)c1ccnc(N[C@H]2CO[C@H]3[C@@H]2OC[C@@H]3NC(=O)c2cccs2)n1` [CBK289520], 94.8%. To `CC(C)(C)c1ccnc(N[C@H]2CO[C@H]3[C@@H]2OC[C@@H]3NS(=O)(=O)Cc2ccccc2)n1` [CBK289521] belongs 91.4%; to `CC(C)(C)c1ccnc(N[C@H]2CO[C@H]3[C@@H]2OC[C@@H]3NC(=O)NCc2ccccc2)n1` [CBK289522], 87.3%. The result for `CS(=O)(=O)N[C@H]1CO[C@H]2[C@@H]1OC[C@@H]2Nc1nccc(-c2ccco2)n1` [CBK289525] reads 96.4%. Turning to `COc1ccc(-c2ccnc(N[C@H]3CO[C@H]4[C@@H]3OC[C@@H]4NC(=O)c3ccccc3)n2)cc1` [CBK289526], the viability at 28.5 h, 10 µM came out at 83.5%.

Consider `COc1ccc(-c2ccnc(N[C@H]3CO[C@H]4[C@@H]3OC[C@@H]4NC(=O)C3CCCCC3)n2)cc1` [CBK289527], for which the viability at 28.5 h, 10 µM turned out to be 88.9%.

Take `CO[C@@H]1CO[C@H]2[C@@H]1OC[C@@H]2Nc1nccc(-c2cccc(C#N)c2)n1` [CBK289532]: the viability at 28.5 h, 10 µM turned out to be 79.8%. Consider `CC(=O)N[C@H]1CO[C@H]2[C@@H]1OC[C@@H]2Nc1nccc(-c2cccc(F)c2)n1` [CBK289534], for which the viability at 28.5 h, 10 µM was determined as 99.3%. As for `O=C(N[C@H]1CO[C@H]2[C@@H]1OC[C@@H]2Nc1nccc(-c2cccc(F)c2)n1)C1CC1` [CBK289535], the viability at 28.5 h, 10 µM was determined as 99.2%.

As for `CCNC(=O)N[C@H]1CO[C@H]2[C@@H]1OC[C@@H]2Nc1nccc(-c2cccc(F)c2)n1` [CBK289536], the viability at 28.5 h, 10 µM stood at 91.1%. The result for `O=C(N[C@H]1CCN2C(=O)[C@H]3CCCN3C(=O)[C@@H]2C1)c1cccs1` [CBK289538] reads 106%; that for `CC(C)NC(=O)N[C@H]1CCN2C(=O)N(c3cccc4nsnc34)C(=O)[C@@H]2C1` [CBK289539], 111%; that for `CC(C)c1ccc(N2C(=O)[C@@H]3C[C@@H](NC(=O)c4cccs4)CCN3C2=O)cc1` [CBK289541], 93.1%. `CC(C)c1ccc(N2C(=O)[C@@H]3C[C@@H](NC(=O)c4ccnc(Cl)c4)CCN3C2=O)cc1` [CBK289544]: the viability at 28.5 h, 10 µM was determined as 102%.

As to `CC(C)c1ccc(N2C(=O)[C@@H]3C[C@@H](NC(=O)c4cccn4C)CCN3C2=O)cc1` [CBK289547], the viability at 28.5 h, 10 µM was 92.3%.

Consider `Cn1cccc1C(=O)N[C@H]1CCN2C(=O)N(c3ccc(OC(F)(F)F)cc3)C(=O)[C@@H]2C1` [CBK289548], for which the viability at 28.5 h, 10 µM stood at 94.7%. With `Cn1cccc1C(=O)N[C@H]1CCN2C(=O)N(c3cccc(F)c3)C(=O)[C@@H]2C1` [CBK289549], the viability at 28.5 h, 10 µM was 88.8%. As to `O=C(N[C@H]1CCN2C(=O)N(c3cccc(C(F)(F)F)c3)C(=O)[C@@H]2C1)c1ccncc1` [CBK289552], the viability at 28.5 h, 10 µM stood at 98.7%.

Consider `C=CCO[C@@H]1C[C@H]2C(=O)N3CC[C@H](NC(=O)[C@@H](O)c4ccccc4)C[C@H]3C(=O)N2C1` [CBK289556], for which the viability at 28.5 h, 10 µM is 89.6%. As to `O=C(N[C@H]1CCN2C(=O)c3cc(-c4ccccc4F)ccc3NC(=O)[C@@H]2C1)c1cnccn1` [CBK289558], the viability at 28.5 h, 10 µM turned out to be 118%.

As to `O=C(N[C@H]1CCN2C(=O)c3cc(-c4cccs4)ccc3NC(=O)[C@@H]2C1)c1cnccn1` [CBK289559], the viability at 28.5 h, 10 µM was found to be 106%. To `COCC(=O)N[C@H]1CCN2C(=O)c3cc(-c4ccc(F)cc4F)ccc3NC(=O)[C@@H]2C1` [CBK289561] belongs 78.6%.

As for `COc1ccc(C(=O)N[C@H]2CCN3C(=O)c4ccc(Cl)cc4NC(=O)[C@@H]3C2)cc1` [CBK289564], the viability at 28.5 h, 10 µM was found to be 84.5%. The result for `CS(=O)(=O)N[C@H]1CCN2C(=O)c3cc(-c4ccc(Cl)cc4)ccc3NC(=O)[C@@H]2C1` [CBK289565] reads 95.3%.

In general, viability refers to a read-out of living cells in per cent, often relative to untreated cells.
